Assay results taken from patent US10479780B2, “Aminopyrazole derivatives” (Chugai Seiyaku Kabushiki Kaisha, priority 2015, dated 2019).
pIC50: −log10 of the molar value.

How the values were obtained:
Assay type in all cases: biochemical
human Lck enzyme = biological target: T1, human Lck enzyme (Homo sapiens, UniProt P06239); assay: Lck enzyme inhibitory activity (time-resolved fluorometry, biotinylated peptide phosphorylation); conditions: biotinylated peptide phosphorylation, read-out: LCK_IC50
T1 construct: purchased Carna Biosciences, Inc. 08-170
T1 sequence (P06239 whole entry): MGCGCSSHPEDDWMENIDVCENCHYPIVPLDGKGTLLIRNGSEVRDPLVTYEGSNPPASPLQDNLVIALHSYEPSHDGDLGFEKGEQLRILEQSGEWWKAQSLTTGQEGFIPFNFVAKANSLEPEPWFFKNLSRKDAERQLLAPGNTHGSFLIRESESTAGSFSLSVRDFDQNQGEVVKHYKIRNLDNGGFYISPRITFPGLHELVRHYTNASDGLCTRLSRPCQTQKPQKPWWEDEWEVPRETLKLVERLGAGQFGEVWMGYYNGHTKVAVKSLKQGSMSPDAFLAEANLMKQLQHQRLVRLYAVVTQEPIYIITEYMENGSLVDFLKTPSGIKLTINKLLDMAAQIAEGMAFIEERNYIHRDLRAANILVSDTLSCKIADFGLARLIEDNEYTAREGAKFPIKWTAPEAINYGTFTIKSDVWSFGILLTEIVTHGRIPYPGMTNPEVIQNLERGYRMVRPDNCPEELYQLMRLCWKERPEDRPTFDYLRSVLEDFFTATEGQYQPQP
How it was run: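 Readout pairs a europium cryptate-labelled anti-phosphotyrosine antibody with XL665-streptavidin, measured by time-resolved fluorescence. IC50 derived from percent inhibition against untreated controls.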

human Src enzyme = biological target: T2, human Src enzyme (Homo sapiens, UniProt P12931); assay: Src enzyme inhibitory activity (time-resolved fluorometry, biotinylated peptide phosphorylation); conditions: biotinylated peptide phosphorylation, read-out: SRC_IC50
T2 construct: purchased Carna Biosciences, Inc. 08-173
T2 sequence (P12931 whole entry): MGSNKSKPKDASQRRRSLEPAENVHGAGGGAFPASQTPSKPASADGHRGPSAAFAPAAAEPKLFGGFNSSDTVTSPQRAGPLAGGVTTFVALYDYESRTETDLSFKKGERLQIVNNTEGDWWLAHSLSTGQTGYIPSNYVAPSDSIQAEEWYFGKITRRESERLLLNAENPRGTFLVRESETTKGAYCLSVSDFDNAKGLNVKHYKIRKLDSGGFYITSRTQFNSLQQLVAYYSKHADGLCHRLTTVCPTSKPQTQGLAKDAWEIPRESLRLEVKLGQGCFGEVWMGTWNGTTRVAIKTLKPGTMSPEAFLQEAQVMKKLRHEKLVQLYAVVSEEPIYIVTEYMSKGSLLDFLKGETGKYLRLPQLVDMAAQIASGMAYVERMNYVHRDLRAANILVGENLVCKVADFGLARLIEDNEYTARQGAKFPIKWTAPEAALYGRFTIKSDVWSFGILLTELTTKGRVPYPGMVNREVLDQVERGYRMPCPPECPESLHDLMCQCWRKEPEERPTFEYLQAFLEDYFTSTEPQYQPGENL
How it was run: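 Compounds were tested for blocking tyrosine phosphorylation of a biotinylated peptide substrate by recombinant human Src. Phosphorylated product was quantified by time-resolved fluorometry using europium cryptate and XL665 conjugates, and IC50 was calculated against the compound-free control.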

human Yes1 enzyme = biological target: T3, human Yes1 enzyme (Homo sapiens, UniProt P07947); assay: Yes1 enzyme inhibitory activity (time-resolved fluorometry, biotinylated peptide phosphorylation); conditions: biotinylated peptide phosphorylation, read-out: YES_IC50
T3 construct: made in house
T3 sequence (P07947 whole entry): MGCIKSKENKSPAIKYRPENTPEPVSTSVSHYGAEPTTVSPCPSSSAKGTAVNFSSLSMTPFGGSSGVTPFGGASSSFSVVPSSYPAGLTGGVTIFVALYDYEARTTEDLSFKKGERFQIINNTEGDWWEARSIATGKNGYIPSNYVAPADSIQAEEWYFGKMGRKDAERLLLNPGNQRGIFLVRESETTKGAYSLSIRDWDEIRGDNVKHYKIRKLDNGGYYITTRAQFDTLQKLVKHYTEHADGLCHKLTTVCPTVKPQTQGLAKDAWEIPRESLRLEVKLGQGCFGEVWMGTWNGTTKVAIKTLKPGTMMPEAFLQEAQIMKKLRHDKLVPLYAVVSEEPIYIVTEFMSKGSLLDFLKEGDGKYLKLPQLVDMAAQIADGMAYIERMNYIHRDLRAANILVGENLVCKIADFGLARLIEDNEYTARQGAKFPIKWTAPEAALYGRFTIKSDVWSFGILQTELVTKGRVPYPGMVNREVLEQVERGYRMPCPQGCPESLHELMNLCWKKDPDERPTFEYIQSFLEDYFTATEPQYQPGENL
How it was run: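 Inhibition was expressed against a compound-free control to give IC50, using TR-FRET read-out (Eu-cryptate anti-pTyr antibody, streptavidin-XL665).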

## Cc1cc(Oc2ccccc2F)ccc1-n1ncc(C(=O)c2cc3cc(OCC(F)F)c(NS(=O)(=O)CCCF)cc3[nH]2)c1N [Example 4-24-022, N-[2-[5-amino-1-[4-(2-fluorophenoxy)-2-methylphenyl]pyrazole-4-carbonyl]-5-(2,2-difluoroethoxy)-1H-indol-6-yl]-3-fluoropropane-1-sulfonamide]
Human Lck enzyme
  pIC50: 7.66
Human Src enzyme
  pIC50: 7.52
Human Yes1 enzyme
  pIC50: 8.49

## Cc1cc(Oc2ccccc2F)ccc1-n1ncc(C(=O)c2cc3cc(OCC(F)F)c(NS(=O)(=O)CCC(F)F)cc3[nH]2)c1N [Example 4-24-023, N-[2-[5-amino-1-[4-(2-fluorophenoxy)-2-methylphenyl]pyrazole-4-carbonyl]-5-(2,2-difluoroethoxy)-1H-indol-6-yl]-3,3-difluoropropane-1-sulfonamide]
Human Lck enzyme
  pIC50: 7.85
Human Src enzyme
  pIC50: 7.62
Human Yes1 enzyme
  pIC50: 8.64

## Cc1cc(Oc2ccccc2F)cc(F)c1-n1ncc(C(=O)c2cc3cc(OCC(F)F)c(NS(=O)(=O)C4CC4)cc3[nH]2)c1N [Example 4-24-024, N-[2-[5-amino-1-[2-fluoro-4-(2-fluorophenoxy)-6-methylphenyl]pyrazole-4-carbonyl]-5-(2,2-difluoroethoxy)-1H-indol-6-yl]cyclopropanesulfonamide]
Human Lck enzyme
  pIC50: 7.34
Human Src enzyme
  pIC50: 6.89
Human Yes1 enzyme
  pIC50: 8.48

## Cc1cc(Oc2ccccc2F)cc(F)c1-n1ncc(C(=O)c2cc3cc(OCC(F)F)c(NS(C)(=O)=O)cc3[nH]2)c1N [Example 4-24-025, N-[2-[5-amino-1-[2-fluoro-4-(2-fluorophenoxy)-6-methylphenyl]pyrazole-4-carbonyl]-5-(2,2-difluoroethoxy)-1H-indol-6-yl]methanesulfonamide]
Human Lck enzyme
  pIC50: 7.89
Human Src enzyme
  pIC50: 7.23
Human Yes1 enzyme
  pIC50: 8.80

## Cc1cc(Oc2ccccc2F)cc(F)c1-n1ncc(C(=O)c2cc3cc(OCC(F)F)c(NS(=O)(=O)CCCF)cc3[nH]2)c1N [Example 4-24-026, N-[2-[5-amino-1-[2-fluoro-4-(2-fluorophenoxy)-6-methylphenyl]pyrazole-4-carbonyl]-5-(2,2-difluoroethoxy)-1H-indol-6-yl]-3-fluoropropane-1-sulfonamide]
Human Lck enzyme
  pIC50: 7.68
Human Src enzyme
  pIC50: 7.30
Human Yes1 enzyme
  pIC50: 8.77

## Cc1cc(Oc2ccccc2F)ncc1-n1ncc(C(=O)c2cc3cc(OCC(F)F)c(NS(=O)(=O)C4CC4)cc3[nH]2)c1N [Example 4-24-027, N-[2-[5-amino-1-[6-(2-fluorophenoxy)-4-methylpyridin-3-yl]pyrazole-4-carbonyl]-5-(2,2-difluoroethoxy)-1H-indol-6-yl]cyclopropanesulfonamide]
Human Lck enzyme
  pIC50: 7.26
Human Src enzyme
  pIC50: 6.85
Human Yes1 enzyme
  pIC50: 8.49

## Cc1cc(Oc2ccccc2F)ncc1-n1ncc(C(=O)c2cc3cc(OCC(F)F)c(NS(C)(=O)=O)cc3[nH]2)c1N [Example 4-24-028, N-[2-[5-amino-1-[6-(2-fluorophenoxy)-4-methylpyridin-3-yl]pyrazole-4-carbonyl]-5-(2,2-difluoroethoxy)-1H-indol-6-yl]methanesulfonamide]
Human Lck enzyme
  pIC50: 7.85
Human Src enzyme
  pIC50: 7.43
Human Yes1 enzyme
  pIC50: 8.92

## Cc1cc(Oc2ccccc2F)ncc1-n1ncc(C(=O)c2cc3cc(OCC(F)F)c(NS(=O)(=O)CCCF)cc3[nH]2)c1N [Example 4-24-029, N-[2-[5-amino-1-[6-(2-fluorophenoxy)-4-methylpyridin-3-yl]pyrazole-4-carbonyl]-5-(2,2-difluoroethoxy)-1H-indol-6-yl]-3-fluoropropane-1-sulfonamide]
Human Lck enzyme
  pIC50: 7.54
Human Src enzyme
  pIC50: 7.27
Human Yes1 enzyme
  pIC50: 8.80

## Cc1cc(Oc2c(F)cccc2F)ncc1-n1ncc(C(=O)c2cc3cc(OCC(F)F)c(NS(=O)(=O)C4CC4)cc3[nH]2)c1N [Example 4-24-030, N-[2-[5-amino-1-[6-(2,6-difluorophenoxy)-4-methylpyridin-3-yl]pyrazole-4-carbonyl]-5-(2,2-difluoroethoxy)-1H-indol-6-yl]cyclopropanesulfonamide]
Human Lck enzyme
  pIC50: 7.64
Human Src enzyme
  pIC50: 6.92
Human Yes1 enzyme
  pIC50: 8.77

## Cc1cc(Oc2c(F)cccc2F)ncc1-n1ncc(C(=O)c2cc3cc(OCC(F)F)c(NS(C)(=O)=O)cc3[nH]2)c1N [Example 4-24-031, N-[2-[5-amino-1-[6-(2,6-difluorophenoxy)-4-methylpyridin-3-yl]pyrazole-4-carbonyl]-5-(2,2-difluoroethoxy)-1H-indol-6-yl]methanesulfonamide]
Human Lck enzyme
  pIC50: 8.17
Human Src enzyme
  pIC50: 7.68
Human Yes1 enzyme
  pIC50: 8.92

## Cc1cc(Oc2c(F)cccc2F)ncc1-n1ncc(C(=O)c2cc3cc(OCC(F)F)c(NS(=O)(=O)CCCF)cc3[nH]2)c1N [Example 4-24-032, N-[2-[5-amino-1-[6-(2,6-difluorophenoxy)-4-methylpyridin-3-yl]pyrazole-4-carbonyl]-5-(2,2-difluoroethoxy)-1H-indol-6-yl]-3-fluoropropane-1-sulfonamide]
Human Lck enzyme
  pIC50: 7.85
Human Src enzyme
  pIC50: 7.24
Human Yes1 enzyme
  pIC50: 9.19

## Cc1cc(Oc2c(F)cccc2F)ncc1-n1ncc(C(=O)c2cc3cc(OCC(F)F)c(NS(=O)(=O)CCC(F)F)cc3[nH]2)c1N [Example 4-24-033, N-[2-[5-amino-1-[6-(2,6-difluorophenoxy)-4-methylpyridin-3-yl]pyrazole-4-carbonyl]-5-(2,2-difluoroethoxy)-1H-indol-6-yl]-3,3-difluoropropane-1-sulfonamide]
Human Lck enzyme
  pIC50: 7.80
Human Src enzyme
  pIC50: 7.06
Human Yes1 enzyme
  pIC50: 8.31

## Cc1cc(Oc2ccccc2F)ccc1-n1ncc(C(=O)c2cc3cc(OCCN4CCOCC4)c(NS(C)(=O)=O)cc3[nH]2)c1N [Example 4-24-034, N-[2-[5-amino-1-[4-(2-fluorophenoxy)-2-methylphenyl]pyrazole-4-carbonyl]-5-(2-morpholin-4-ylethoxy)-1H-indol-6-yl]methanesulfonamide]
Human Lck enzyme
  pIC50: 8.33
Human Src enzyme
  pIC50: 8.09
Human Yes1 enzyme
  pIC50: 9.41

## COc1cc2cc(C(=O)c3cnn(-c4cnc(Oc5c(F)cccc5F)cc4C)c3N)[nH]c2cc1NS(=O)(=O)C1CC1 [Example 4-24-035, N-[2-[5-amino-1-[6-(2,6-difluorophenoxy)-4-methylpyridin-3-yl]pyrazole-4-carbonyl]-5-methoxy-1H-indol-6-yl]cyclopropanesulfonamide]
Human Lck enzyme
  pIC50: 8.30
Human Src enzyme
  pIC50: 7.33
Human Yes1 enzyme
  pIC50: 8.92

## Cc1cc(Oc2ccccc2F)ccc1-n1ncc(C(=O)c2cc3cc(OC4CCOCC4)c(NS(C)(=O)=O)cc3[nH]2)c1N [Example 4-24-036, N-{2-{5-amino-1-[4-(2-fluorophenoxy)-2-methylphenyl]pyrazole-4-carbonyl}-5-(oxan-4-yloxy)-1H-indol-6-yl}methanesulfonamide]
Human Lck enzyme
  pIC50: 7.70
Human Src enzyme
  pIC50: 6.92
Human Yes1 enzyme
  pIC50: 8.38

## Cc1cc(Oc2ccccc2F)ccc1-n1ncc(C(=O)c2cc3cc(OCCN4CC5CC(C4)N5S(C)(=O)=O)c(NS(C)(=O)=O)cc3[nH]2)c1N [Example 4-24-037]
Human Lck enzyme
  pIC50: 8.42
Human Src enzyme
  pIC50: 7.62
Human Yes1 enzyme
  pIC50: 9.17

## Cc1cc(Oc2ccccc2F)ccc1-n1ncc(C(=O)c2cc3cc(OCCN4C[C@@H]5C[C@H]4CN5S(C)(=O)=O)c(NS(C)(=O)=O)cc3[nH]2)c1N [Example 4-24-038, N-[2-[5-amino-1-[4-(2-fluorophenoxy)-2-methylphenyl]pyrazole-4-carbonyl]-5-[2-[(1S,4S)-2-methylsulfonyl-2,5-diazabicyclo[2.2.1]heptan-5-yl]ethoxy]-1H-indol-6-yl]methanesulfonamide]
Human Lck enzyme
  pIC50: 8.54
Human Src enzyme
  pIC50: 8.16
Human Yes1 enzyme
  pIC50: 9.26
